Laboratory results taken from ChEMBL document CHEMBL1122435, “Pyrrolopyrimidine nucleosides. 18. Synthesis and chemotherapeutic activity of 4-amino-7-(3-deoxy-beta-D-ribofuranosyl)pyrrolo[2,3-d] pyrimidine-5-carboxamide (3'-deoxysangivamycin) and 4-amino-7-(2-deoxy-beta-D-ribofuranosyl)pyrrolo[2,3-d] pyrimidine-5-carboxamide (2'-deoxysangivamycin)” (1983).

How the values were obtained:
[1] = tested on: L1210; experiment: Occurrence of drug-induced shortening of life span resulting from treatment at 0.25 mg/kg dose in L1210-bearing mice; y=yes; type: functional, organism-based; design: dose 0.25 mg/kg; conditions: Mus musculus
[2] = tested on: L1210; experiment: Increase in life span for drug treated L1210-bearing mice at the dose of 0.25 mg/kg upon intraperitoneal administration; type: functional; conditions: Mus musculus, L1210, ip
[3] = tested on: L1210; experiment: Increase in life span for drug treated L1210-bearing mice at the dose of 128 mg/kg upon intraperitoneal administration; type: functional; conditions: Mus musculus, L1210, ip
[4] = tested on: L1210; experiment: Increase in life span for drug treated L1210-bearing mice at the dose of 100 mg/kg upon intraperitoneal administration; type: functional; conditions: Mus musculus, L1210, ip
[5] = tested on: L1210; experiment: Occurrence of drug-induced shortening of life span resulting from treatment at 100 mg/kg dose in L1210-bearing mice; y=yes; type: functional, organism-based; design: dose 100 mg/kg; conditions: Mus musculus
[6] = tested on: L1210; experiment: Increase in life span for drug treated L1210-bearing mice at the dose of 160 mg/kg upon intraperitoneal administration; type: functional; conditions: Mus musculus, L1210, ip

With `NC(=O)c1cn([C@@H]2O[C@H](CO)[C@@H](O)[C@H]2O)c2ncnc(N)c12` [SANGIVAMYCIN] the Toxicity [1] was “Yes” and the ILS at 0.25 mg/kg [2] was 37%.
`NC(=O)c1cn(C2OC(CO)CC2O)c2ncnc(N)c12` (stereo unspecified) was tested, and the ILS at 128 mg/kg [3] was 128%.
In the case of `C[C@H]1OC(n2cc(C(N)=O)c3c(N)ncnc32)[C@H](O)[C@@H]1O` (stereo partly specified), the ILS at 100 mg/kg [4] is reported as 5% and the Toxicity [5] is reported as “Yes”.
Work on `NC(=O)c1cn([C@H]2C[C@H](O)[C@@H](CO)O2)c2ncnc(N)c12` yielded an ILS at 160 mg/kg [6] of 4%.
